One data set is described as follows: Water solubility. Type of data set: physicochemical.
Data set [1] has as its system MDA-MB-231 breast cancer cells. Nature of the data set: MTS cell viability assay with and without UV-A exposure. The data set is classed as cell-based. Conditions: compound added pre-UV exposure (UV-A 30 min), 100 μM and 10 μM, MTS after 24 h, vs. VC, n=4. As for the experimental part:
After 24 hours incubation at 37° C., varying concentrations of 2-TPPMDBTO were added and incubated for 1 hour at 37° C. One plate with cells were then left at room temperature covered for 15 minutes (cells without UV). The second plate was exposed to UV-A in a Luzchem photoreactor with 8 LZC-UVA lamps for 15 minutes (Cells with UV). Plates were then incubated for 24 hours at 37° C. and then a MTS cell viability assay (Promega) was performed. Cell viability assay was run on a Flexstation3 mulitmode plate reader and percent viability was calculated. Statistical analyses were performed using GraphPad Prism program.
FIGS. 6A-C show cell studies wherein MDA-MB-231 breast cancer cells were plated at 10,000 cells/well on three 96 well plates. After 24 hours incubation at 37° C., varying concentrations of MA-1 and MA-2 were added and incubated for 1 hour at 37° C. on only two plates (pre-UV and no UV exposure). One plate with cells were then left at room temperature covered for 30 min (no UV). The second plate (pre-UV) and the third plate (post-UV) were exposed to UV-A in a Luzchem photoreactor with 8 LZC-UVA lamps for 30 min. Varying concentrations of MA-1, MA-2, MA-3 and MA-4 were added to post UV plate after irradiation. […] Cell viability assay was run on a Flexstation3 mulitmode plate reader and percent viability was calculated. […]
(Tetrazolium dyes change colour on reduction, which living cells bring about.)

Another data set relates to cell cycle progression. Nature of the data set: Cell cycle progression with, without or before UV-A irradiation. The data set is classed as cell-based.

Turning to `[O-][s+]1c2ccccc2c2cc(C[P+](c3ccccc3)(c3ccccc3)c3ccccc3)ccc21` (stereo not drawn) [MA-1, (5-oxo-2-dibenzothienylmethyl)triphenylphosphonium], in the data set “Water solubility”, the water solubility result is reported as “water soluble”.

Take “(5-oxo-2-dibenzothienylmethyl)triphenylphosphonium [MA-1]”: the “% cell viability” value in data set [1] is listed as “decrease in % cell viability is observed”. Also, the “cell cycle progression / cell cycle arrest” value was “the progression of the cell cycle is not arrested” in the data set on cell cycle progression (compound administered in the absence of UV or after irradiation); “no significant change in the progress was seen” with cell cycle progression (compound administered in the absence of UV or after irradiation, listed as 1a); “cell cycle progression is arrested” in the data set with cell cycle progression (in the presence of UV-A irradiation); “presence of UV-A irradiation is necessary to lead to cell cycle arrest” in the data set on cell cycle progression (in the presence of UV-A irradiation, listed as 1a).

The record behind these values is patent US12054470B2, “Photoswitchable dibenzothienylmethyl triphenylphosphonium derivatives and methods of treating cancer therewith” (Saint Louis University, priority 2018, dated 2024).
